Active and inactive are the calls of the source.
Tests used:
Paracentrotus lividus [1] = assay: Microtubule destabilizing activity in Paracentrotus lividus embryo assessed as embryo spinning at 2 fold less effective threshold concentration after 15 mins to 20 hrs; type: functional, organism-based
Paracentrotus lividus [2] = assay: Antimitotic activity against Paracentrotus lividus embryo assessed as concentration required to cause 100% cleavage alteration after 2.5 to 6 hrs; type: functional
Paracentrotus lividus [3] = assay: Antimitotic activity against Paracentrotus lividus embryo assessed as concentration required to cause 100% cleavage arrest after 2.5 to 6 hrs; type: functional
Paracentrotus lividus [4] = assay: Antimitotic activity against Paracentrotus lividus embryo assessed as cleavage alteration at 2 fold less effective threshold concentration after 2.5 to 6 hrs; type: functional, organism-based
Paracentrotus lividus [5] = assay: Microtubule destabilizing activity in Paracentrotus lividus embryo assessed as concentration required to cause 100% embryo spinning after 15 mins to 20 hrs; type: functional
Paracentrotus lividus [6] = assay: Antimitotic activity against Paracentrotus lividus embryo assessed as cleavage arrest at 2 fold less effective threshold concentration after 2.5 to 6 hrs; type: functional, organism-based

Row | SMILES | Activity (Paracentrotus lividus [1]) | EC (Paracentrotus lividus [2]) | EC (Paracentrotus lividus [3]) | Activity (Paracentrotus lividus [4]) | EC (Paracentrotus lividus [5]) | Activity (Paracentrotus lividus [6])
1 | COc1ccc2c(c1)NC1=C(C(=O)OC1)C2c1cc(OC)c(OC)c(OC)c1 (stereo not given) | inactive | 50 nM | 500 nM | inactive | 500 nM | inactive
2 | COc1ccc2c(c1)NC1=C(C(=O)OC1)C2c1cc(OC)c2c(c1)OCCO2 (stereo not given) | inactive | 10 nM | 50 nM | inactive | 1000 nM | inactive
3 | COc1cc([C@H]2C3=C(COC3=O)Nc3cc4c(cc32)OCO4)cc(OC)c1OC | inactive |  |  | inactive |  | inactive
4 | COc1ccc2c(c1)OC1=C(C(=O)OC1)C2c1cc(OC)c2c(c1OC)OCO2 (stereo not given) | inactive | 100 nM | 500 nM | inactive | 4000 nM | inactive
5 | COc1cc2c(c(OC)c1OC)C(c1ccccc1)C1=C(COC1=O)O2 (stereo not given) | inactive | 2000 nM | >4000 nM | inactive | >4000 nM | inactive
6 | COc1ccc2c(c1)C(c1cc(OC)c3c(c1)OCO3)C1=C(COC1=O)O2 (stereo not given) | inactive | 50 nM | 200 nM | inactive | 2000 nM | inactive
7 | COc1ccc2c(c1)C(c1cc(OC)c(OC)c(OC)c1)C1=C(COC1=O)O2 (stereo not given) | inactive | 100 nM | 2000 nM | inactive | 5000 nM | inactive
8 | COc1cc(OC)cc(C2C3=C(COC3=O)Oc3cc(OC)ccc32)c1 (stereo not given) | inactive | 1 nM | 5 nM | inactive | 50 nM | inactive

From ChEMBL document CHEMBL2010711, “Synthesis and comparative evaluation of 4-oxa- and 4-aza-podophyllotoxins as antiproliferative microtubule destabilizing agents” (Bioorg Med Chem Lett, 2012)
